Several values for one entry are separate records, joined by “and”; a condition that tells them apart may be missing. Equal values may be shown once.
Assays:
A10 cells = assay: Relative biocompatibility of treated collagen surfaces, survival of A10 cells; type: cell-based; conditions: A10 cells on denatured bovine type I collagen film treated with 0.2% (v/v) glutaraldehyde (24 hours, room temperature) or 0.1 molar TGA (24 hours, 37° C.), pH 7.4; about 24 hours of culturing
Description: Denatured (100° C., 1 hour) bovine type I collagen was applied as a film to duplicate culture surfaces. One surface was treated by contacting it with a solution comprising 0.2% (v/v) glutaraldehyde at pH 7.4 for 24 hours at room temperature (i.e. about 20° C.). Another surface was treated by contacting it with a solution comprising 0.1 molar TGA at pH 7.4 for 24 hours at 37° C. Both surfaces were rinsed extensively using phosphate-buffered saline (pH 7.4) in order to remove non-reacted compounds. A10 cells (obtained from the American Type Culture Collection; Gaithersburg, Md.) were provided to both surfaces, and survival of the cells was monitored. A high proportion (estimated at 30% or more of cells) which were provided to the glutaraldehyde-treated collagen surface appeared to be dead following about 24 hours of culturing, with significant amounts of cell debris observed.

[1] = pH monitoring of cross-linking reactions; type: physicochemical
Description: (§1) Twenty fresh porcine aortic cusps were added to separate 100 milliliter aliquots of each of the four solutions (i.e. using a total of eighty cusps). The cusps and solutions were maintained with constant shaking at room temperature for up to ten days without changing the solution. At selected times, a small section was removed from each of the cusps in each of the cross-linking reactions and analyzed by differential scanning calorimetry to determine the thermal shrinkage temperature (Ts). Cross-linking reactions were considered complete when the value of Ts remained substantially constant over time. Cusps treated in this manner were maintained in the cross-linking solution for more than 20 days prior to use in subsequent experiments.
(§2) The tissues and solutions were maintained at room temperature with constant shaking for up to seven days, during which time the pH of each cross-linking reaction was monitored. For selected reactions, the reaction mixture solution was replaced every 24 hours with a freshly-prepared 100 milliliter aliquot of 0.1 molar TGA in 0.10 molar HEPES buffer at pH 7.4. At selected times, a small section was removed from each tissue in each of the stabilization reaction mixtures, and the section was analyzed by differential scanning calorimetry to determine the thermal shrinkage temperature (Ts). […]

bovine pericardium = assay: Subdermal calcification study in rats, bovine pericardium; type: in vivo; conditions: Group III: TGA second method, then treated with and stored in formalin-containing solution, 21 days, average ± standard error
Description: (§3) In a second method of cross-linking bioprosthetic tissue, separate 100 milliliter aliquots of […] TGA in 0.10 molar HEPES buffer at pH 7.4 were prepared. The following were added to individual aliquots of this solution.
(§4) The tissues and solutions were maintained at room temperature with constant shaking for up to seven days, during which time the pH of each cross-linking reaction was monitored. For selected reactions, the reaction mixture solution was replaced every 24 hours with a freshly-prepared 100 milliliter aliquot of 0.1 molar TGA in 0.10 molar HEPES buffer at pH 7.4. At selected times, a small section was removed from each tissue in each of the stabilization reaction mixtures, and the section was analyzed by differential scanning calorimetry to determine the thermal shrinkage temperature (Ts). After seven days of reaction, one group of each of the tissues was transferred to 100 milliliters of 0.05 molar phosphate buffer containing 4% (v/v) formalin and stored in this solution prior to use in subsequent experiments.
(§5) Subdermal calcification studies were performed in rats using tissues treated and stored as described above. […] Twenty-one days following implantation, the tissues were recovered and their calcium content was measured in samples taken from each tissue.

[2] = Thermal shrinkage temperature (Ts) by differential scanning calorimetry; type: physicochemical, porcine; conditions: cusp tissue, 0.1 molar TGA and 0.1 molar HEPES, solution replenished every 24 hours, seven days
Description: as §1, §2

porcine aortic cusps = assay: Subdermal calcification study in rats, porcine aortic cusps; type: in vivo
Description: In a first method of cross-linking bioprosthetic tissue, four separate cross-linking solutions were prepared:
1) 0.1 molar TGA in 0.05 molar HEPES buffer at pH 7.4,
2) 0.1 molar TGA in 0.05 boric acid-borax buffer at pH 9.0,
3) 0.1 molar Denacol 521™ (Nagase Chemical Co., Japan) in 0.05 molar HEPES buffer at pH 7.4, and
4) 0.05 molar HEPES buffer (pH 7.4) containing 0.6% (v/v) glutaraldehyde.
as §1, with “experiments. […]” for “experiments.”
Subdermal calcification studies were performed in rats using tissues treated and stored as described above. Following treatment by either of the two methods described above, the tissues were rinsed thoroughly with excess sterile saline solution immediately prior to implantation. Tissues were implanted subdermally (1 tissue sample per rat, 10 rats per treatment method). Twenty-one days following implantation, the tissues were recovered and their calcium content was measured in samples taken from each tissue.

[3] = system: porcine aortic wall segments; assay: Subdermal calcification study in rats, porcine aortic wall; type: in vivo; conditions: Group III: TGA second method, then treated with and stored in formalin-containing solution, 21 days, average ± standard error
Description: as §3, §4, §5

[4] = cusps cross-linked with 0.1 molar TGA in borate buffer pH 9.0, first method, subdermal in rats, 21 days

Structure (SMILES)	proportion of cells which appeared to be dead (A10 cells)	pH of the stabilization reaction mixture ([1]; first stabilization method, solution not changed, seven-day reaction period)	pH of the stabilization reaction mixture ([1]; second method, reaction mixture solution replaced every 24 hours)	Calcium (micrograms/milligram of dry tissue) (bovine pericardium)	thermal shrinkage temperature (Ts) [2]	calcium content, average value ± standard error (porcine aortic cusps; D: cusps cross-linked with 0.1 molar TGA in HEPES buffer pH 7.4, first method, subdermal in rats, 21 days)	calcium content of individual tissue samples (porcine aortic cusps; D: cusps cross-linked with 0.1 molar TGA in HEPES buffer pH 7.4, first method, subdermal in rats, 21 days, listed as D)	calcium content of individual tissue samples (porcine aortic cusps; [4])	calcium content, average value ± standard error (porcine aortic cusps; [4])	Calcium (micrograms/milligram of dry tissue) (porcine aortic cusps; porcine aortic cusps, Group III: TGA second method, then treated with and stored in formalin-containing solution, subdermal in rats, 21 days, average ± standard error)	post-implantation calcification of the tissue, result in words (porcine aortic cusps; tissues treated by first and second stabilization methods, compared with glutaraldehyde treatment)	Calcium (micrograms/milligram of dry tissue) [3]	calcium content, average value ± standard error (porcine aortic cusps; cusps cross-linked with 0.6% (v/v) glutaraldehyde in 0.05 molar HEPES pH 7.4, first method, subdermal in rats, 21 days)	calcium content of individual tissue samples (porcine aortic cusps; cusps cross-linked with 0.6% (v/v) glutaraldehyde in 0.05 molar HEPES pH 7.4, first method, subdermal in rats, 21 days, listed as A)
C1OC1CN(CC1CO1)CC1CO1 (stereo not drawn) [TGA, triglycidyl amine]	substantially undetectable proportion	~11.5	≤ 8	7.43 ± 3.47 micrograms/milligram of dry ti	about 83 °C	4.13 ± 2.14 micrograms of calcium per milligram of tissue	1.59 micrograms of calcium per milligram of tissue and 17.58 micrograms of calcium per milligram of tissue and 1.107 micrograms of calcium per milligram of tissue and 1.021 micrograms of calcium per milligram of tissue and 0.615 micrograms of calcium per milligram of tissue and 1.30 micrograms of calcium per milligram of tissue and 8.75 micrograms of calcium per milligram of tissue and 1.14 micrograms of calcium per milligram of tissue	1.318 micrograms of calcium per milligram of tissue and 0.811 micrograms of calcium per milligram of tissue and 1.31 micrograms of calcium per milligram of tissue and 2.13 micrograms of calcium per milligram of tissue and 1.20 micrograms of calcium per milligram of tissue and 3.85 micrograms of calcium per milligram of tissue	1.769 micrograms of calcium per milligram of tissue	18.07 ± 9.19 micrograms/milligram of dry ti	inhibits post-implantation calcification of the tissue relative to glutaraldehyde treatment	21.17 ± 1.81 micrograms/milligram of dry ti		
O=CCCCC=O [glutaraldehyde, reference compound]	≥ 30%												106.69 ± 9.81 micrograms of calcium per milligram of tissue	63.28 micrograms of calcium per milligram of tissue and 72.44 micrograms of calcium per milligram of tissue and 117.67 micrograms of calcium per milligram of tissue and 131.43 micrograms of calcium per milligram of tissue and 158.70 micrograms of calcium per milligram of tissue and 140.34 micrograms of calcium per milligram of tissue and 141.91 micrograms of calcium per milligram of tissue and 94.44 micrograms of calcium per milligram of tissue and 89.60 micrograms of calcium per milligram of tissue and 87.42 micrograms of calcium per milligram of tissue

— patent US6391538B1, “Stabilization of implantable bioprosthetic tissue” (The Children's Hospital of Philadelphia, priority 2000, dated 2002)
